Results reported in patent US11013726B2 (Arbutus Biopharma Corporation, priority 2016, dated 2021).
Like-named read-outs stand apart in the source and are kept apart here.

System: HBsAg
Experiment: HBsAg assay
Type: cell-based, hepatitis B virus
In short: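 HepG2.2.15 cells were treated with serially diluted compounds (0.5% DMSO), with medium and compound renewed after 2-3 days. Secreted HBsAg measured at day 6 by chemiluminescence immunoassay; EC50 from dose-response curves. Viability assessed in parallel by CellTiter-Glo.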

[1] = Hepatitis B virus, HepG2.2.15, 144 h, read-out: sAg EC50, μM, HepG2.2.15 cells, day 6

Structure (SMILES)	EC50 [1] [µM]	EC50 (read-out: sAg EC50, HepG2.2.15 cells, day 6) [µM]
CCOCCOc1cc2c(cc1C)-c1cc(=O)c(C(=O)O)cn1[C@H](C(C)C)CO2 [Example 55, (R)-3-(2-Ethoxyethoxy)-7-isopropyl-2-methyl-11-oxo-6,7-dihydro-11H-benzo[f]pyrido[1,2-d][1,4]oxazepine-10-carboxylic acid]	0.13	
CC(C)[C@@H]1CCc2cc3c(nc2-c2cc(=O)c(C(=O)O)cn21)OCCCO3 [Example 169, (S)-6-Isopropyl-2-oxo-2,6,7,8,12,13-hexahydro-111-[1,4]dioxepino[2′,3′:5,6]pyrido[2,3-c]pyrido[1,2-a]azepine-3-carboxylic acid]	2.2	
COc1cc2c(cc1Cl)-c1cc(=O)c(C(=O)O)cn1[C@@H](C(C)C)CO2 (single isomer, unassigned) [Example 4]	3.4	
COCCCOc1cc2c(nc1OC)-c1cc(=O)c(-c3nnn[nH]3)cn1[C@H](C(C)C)C2 [Example 115, (S)-6-Isopropyl-2-methoxy-3-(3-methoxypropoxy)-9-(1H-tetrazol-5-yl)-5,6-dihydro-10H-pyrido[1,2-h][1,7]naphthyridin-10-one]	0.09	
COc1cc2c(cc1Cl)-c1cc(=O)c(C(=O)O)cn1C1CCCC1O2 (centres unmarked) [Example 14, 12-Chloro-11-methoxy-2-oxo-5a,7,8,8a-tetrahydro-2H,6H-benzo[f]cyclopenta[b]pyrido[1,2-d][1,4]oxazepine-3-carboxylic acid]	0.56	
COCCCOc1cc2c(nc1OC)-c1cc(=O)c(C#N)cn1[C@H](C(C)C)C2 [Example 113, (S)-6-Isopropyl-2-methoxy-3-(3-methoxypropoxy)-10-oxo-5,10-dihydro-6H-pyrido[1,2-h][1,7]naphthyridine-9-carbonitrile]	1	
COc1nc2c(s1)CC(C(C)C)n1cc(C(=O)O)c(=O)cc1-2 (centres unmarked) [Example 87, 5-Isopropyl-2-methoxy-9-oxo-4,9-dihydro-5H-thiazolo[4,5-a]quinolizine-8-carboxylic acid]	3.8	
COCCCOc1cc2c(cc1Cl)-c1cc(=O)c(B(O)O)cn1[C@H](C(C)C)CO2 [Example 140, (R)-(2-Chloro-7-isopropyl-3-(3-methoxypropoxy)-11-oxo-6,7-dihydro-11H-benzo[f]pyrido[1,2-d][1,4]oxazepin-10-yl)boronic acid]	2.1	
CCOCCOc1cc2c(cc1CC)-c1cc(=O)c(C(=O)O)cn1[C@H](C(C)C)CO2 [Example 57, (R)-3-(2-Ethoxyethoxy)-2-ethyl-7-isopropyl-11-oxo-6,7-dihydro-111H-benzo[f]pyrido[1,2-d][1,4]oxazepine-10-carboxylic acid]	0.034	
CC(C)[C@@H]1COc2cc(OCC(F)(F)F)c(C3CC3)cc2-c2cc(=O)c(C(=O)O)cn21 [Example 54, (R)-2-Cyclopropyl-7-isopropyl-11-oxo-3-(2,2,2-trifluoroethoxy)-6,7-dihydro-11H-benzo[f]pyrido[1,2-d][1,4]oxazepine-10-carboxylic acid]	0.012	
COCCCOc1cc2c(nc1OC)-c1cc(=O)c(C(=O)O)cn1C(C)(C(C)(C)C)C2 (single isomer, unassigned) [Example 160, 6-(Tert-butyl)-2-methoxy-3-(3-methoxypropoxy)-6-methyl-10-oxo-5,10-dihydro-6H-pyrido[1,2-h][1,7]naphthyridine-9-carboxylic acid]		0.038
COc1cc2c(cc1Cl)-c1cc(=O)c(C(=O)O)cn1[C@@H](CC(C)C)CO2 (single isomer, unassigned) [Example 6]	3.8	
COCC1(COC)COc2cc3c(cc2OC1)-c1cc(=O)c(C(=O)O)cn1C(C(C)(C)C)C3 (centres unmarked) [Example 99, 6-(Tert-butyl)-11,11-bis(methoxymethyl)-2-oxo-6,7,11,12-tetrahydro-2H,10H-[1,4]dioxepino[2,3-g]pyrido[2,1-a]isoquinoline-3-carboxylic]	0.49	
COCCCOc1cc2c(nc1OC)-c1cc3n[nH]c(=O)c-3cn1[C@H](C(C)C)C2 [Example 153, (S)-6-Isopropyl-2-methoxy-3-(3-methoxypropoxy)-5,10-dihydropyrazolo[3′,4′:4,5]pyrido[1,2-h][1,7]naphthyridin-9(6H)-one]	0.23	
